Experimental data taken from patent US5618726A, “Biodegradable azo dyes” (priority 1994, dated 1997).

Key:
[1] = system: ligninase; test: Oxidation of dyes by P. chrysosporium ligninase (crude preparation); assay type: biochemical, Phanerochaete chrysosporium; conditions: crude enzyme, conditions specific for ligninase
Description: The peroxidase assay was carried out using a composition having a final volume of 1.0 ml. The reaction mixture contained 250 μl of 100 mM HEPES buffer (pH 8), 500 μl of 10 mM 2,4-dichlorophenol, 100 μl of 1 mM aminoantipyrine, 50 μl enzyme preparation and 100 μl 50 mM H2 O2. The reaction was initiated by the addition of hydrogen peroxide at 37° C. One unit of peroxidase activity was expressed as the amount of enzyme required for an increase of one absorbance-unit-per-minute at 510 nm. Assays of manganese peroxidase and of ligninase from P. chrysosporium were carried out as previously described by Paszczynski et al in "Manganese peroxidase of Phanerochaete chrysosporium: Purification," Methods Enzymol. 161:264-270, incorporated herein by reference. […] Biophys., 1986, 44:750-765. Preparation and assay of ligninase and manganese peroxidase from these P. chrysosporium cultures were carried out as previously reported by Paszczynski, et al., Methods Enzymol., 1988, 161:264-270. […] Purification," Methods Enzymol. 161:264-270. […] Cycle time was 30 seconds with the last measure after 15 minutes. […] The reaction conditions were the same as for acid yellow 9. No decolorization of the synthesized dyes by ligninase was detected.

[2] = biological target: T1, horseradish peroxidase type II (Armoracia rusticana, UniProt P00433); test: Oxidation of azo dyes by horseradish peroxidase preparation; assay type: biochemical; conditions: pH 8, 37° C., H2O2
T1 sequence (P00433 31-338): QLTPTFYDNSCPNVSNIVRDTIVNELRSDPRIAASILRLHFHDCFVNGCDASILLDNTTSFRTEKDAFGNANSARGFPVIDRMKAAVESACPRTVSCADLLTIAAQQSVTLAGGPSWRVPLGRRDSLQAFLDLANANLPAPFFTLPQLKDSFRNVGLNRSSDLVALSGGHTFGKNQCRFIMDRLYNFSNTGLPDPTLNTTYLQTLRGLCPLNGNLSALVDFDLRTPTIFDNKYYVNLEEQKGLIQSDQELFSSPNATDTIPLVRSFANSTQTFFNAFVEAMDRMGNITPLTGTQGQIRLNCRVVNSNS
Description: The reaction was started with the addition of 100 μl of 50 mM H2 O2 and was followed for 1 min at 37° C. Controls were run with no addition of H2 O2 or with the addition of the hemeperoxidase inhibitor KCN (final concentration 25 μM).

[3] = system: Mn(II)-peroxidase; test: Oxidation of dyes by P. chrysosporium Mn(II)-peroxidase; assay type: biochemical, Phanerochaete chrysosporium; conditions: crude enzyme, conditions specific for Mn(II)-peroxidase
Description: The peroxidase assay was carried out using a composition having a final volume of 1.0 ml. The reaction mixture contained 250 μl of 100 mM HEPES buffer (pH 8), 500 μl of 10 mM 2,4-dichlorophenol, 100 μl of 1 mM aminoantipyrine, 50 μl enzyme preparation and 100 μl 50 mM H2 O2. The reaction was initiated by the addition of hydrogen peroxide at 37° C. One unit of peroxidase activity was expressed as the amount of enzyme required for an increase of one absorbance-unit-per-minute at 510 nm. Assays of manganese peroxidase and of ligninase from P. chrysosporium were carried out as previously described by Paszczynski et al in "Manganese peroxidase of Phanerochaete chrysosporium: Purification," Methods Enzymol. 161:264-270, incorporated herein by reference. […] Biophys., 1986, 44:750-765. Preparation and assay of ligninase and manganese peroxidase from these P. chrysosporium cultures were carried out as previously reported by Paszczynski, et al., Methods Enzymol., 1988, 161:264-270. […] Purification," Methods Enzymol. 161:264-270. […] Cycle time was 10 seconds, with the last measure after three minutes of incubation.

[4] = system: S. chromofuscus A11 extracellular peroxidase; test: Oxidation of azo dyes by S. chromofuscus A11 crude enzyme preparation; assay type: biochemical, Streptomyces chromofuscus A11; conditions: pH 8, 37° C., H2O2
Description: Environ. Microbiol., 1988, 54:3057-3063. […] Microbiol. Biotechnol., 34:661-667. Incubation took place at 37° C. with shaking at 250 rpm. The culture supernatant was collected after 48 h incubation, and vacuum-filtered through Whatman no. 1 filter paper. The filtrate was concentrated approximately 40- to 50-fold by ultrafiltration through an Amicon ultrafiltration stirred cell (series no. 8000, Amicon Corp.) with a disc PM-10 filter (diameter, 76 mm). Protein in the concentrated filtrate was then precipitated from solution with 80% ammonium sulfate. The precipitate was collected by centrifugation (15 min, 10,000 rpm). The pellet was resuspended in 10 ml of 20 mM HEPES buffer (pH 8) and dialyzed overnight against the same buffer at 4° C. These preparations were then stored in 1-ml aliquots at -20° C. until used. Before using, the preparation was filtered through a NAP-25 Sephadex G-25 disposable column (Pharmacia) in order to separate a yellowish protein fraction from a pink low-molecular-weight fraction. The yellowish fraction was used as the source of enzyme. […] The reaction was started with the addition of 100 μl of 50 mM H2 O2 and was followed for 1 min at 37° C. Controls were run with no addition of H2 O2 or with the addition of the hemeperoxidase inhibitor KCN (final concentration 25 μM).

[5] = system: Phanerochaete chrysosporium; test: Substrate removal / decolorization by P. chrysosporium culture; assay type: cell-based; conditions: for % Decolorization, P. chrysosporium: 14 days
Description: Environ. Microbiol., 1981, 42:290-296), with the addition of 75 mg adenine (6-aminopurine) and 27 mg L-phenylalanine-per-liter. This addition accelerated the growth of the fungus without inhibiting ligninase activity. […] […] Cultures were incubated at 37° C. for 7 to 15 days with shaking (250 rpm). Solid agar media were also employed.

[6] = system: P. chrysosporium ligninolytic culture; assay type: cell-based, Phanerochaete chrysosporium; conditions: initial 200 mg-per-liter, ten days of growth
Description: Decolorization of dyes in cultures were monitored at their absorption maxima at pH 4.5, or using HPLC. A Spherisorb ODS2 C18 column was used for HPLC analysis with a sequence of DMS buffer at pH 4.5 and acetonitrile as solvents (5 min 100% DMS, 15 min 100% acetonitrile, 18 min 100% acetonitrile, 19 min 100% DMS, 20 min 100% DMS, 5 min postran 100% DMS). Peaks were monitored at 260 and 450 nm. Results from spectrophotometric and HPLC methods were compared.
The initial concentration of dye was 200 mg-per-liter. Numbers represent mg-per-liter of dye remaining in the cultures.

[7] = beginning concentration 150 ppm
[8] = beginning concentration 300 ppm

## Nc1ccc(N=Nc2ccc(S(=O)(=O)O)cc2)cc1S(=O)(=O)O [compound 18]
[1]
  Oxidation rate of azo dyes, P. chrysosporium Ligninase: 1.38 μmoles per minute per ml
[2]
  Oxidation rate of azo dyes, Horseradish peroxidase: 0.12 μmoles per minute per ml
[3]
  Oxidation rate of azo dyes, P. chrysosporium Mn-peroxidase: 0.09 μmoles per minute per ml
[4]
  Oxidation rate of azo dyes, S. chromofuscus peroxidase: 0.15 μmoles per minute per ml
[5]; beginning concentration 100 ppm
  Concentration of substrate after ten days cultivation with P. chrysosporium: 8.387 ppm
[5]; [7]
  Concentration of substrate after ten days cultivation with P. chrysosporium: 20.342 ppm
[5]; beginning concentration 200 ppm
  Concentration of substrate after ten days cultivation with P. chrysosporium: 40.875 ppm
[5]; [8]
  Concentration of substrate after ten days cultivation with P. chrysosporium: 77.099 ppm

## O=S(=O)(O)c1ccc2c(N=Nc3ccccc3)c(O)ccc2c1 [compound 19]
[1]
  Oxidation rate of azo dyes, P. chrysosporium Ligninase: 2.06 μmoles per minute per ml
[2]
  Oxidation rate of azo dyes, Horseradish peroxidase: 0.08 μmoles per minute per ml
[3]
  Oxidation rate of azo dyes, P. chrysosporium Mn-peroxidase: 0.10 μmoles per minute per ml
[4]
  Oxidation rate of azo dyes, S. chromofuscus peroxidase: 0.35 μmoles per minute per ml
[5]; [7]
  Concentration of substrate after ten days cultivation with P. chrysosporium: 2.938 ppm
[5]; [8]
  Concentration of substrate after ten days cultivation with P. chrysosporium: 252.592 ppm
[5]; initial concn 150 ppm
  % Decolorization, P. chrysosporium: 93%
[5]; initial concn 300 ppm
  % Decolorization, P. chrysosporium: 87%

## Nc1c(N=Nc2ccc(-c3ccc(N=Nc4cc(S(=O)(=O)O)c5ccccc5c4N)cc3)cc2)cc(S(=O)(=O)O)c2ccccc12 [compound 20]
[6]
  Dye remaining in the cultures, HPLC: 62.20 mg-per-liter
  Dye remaining in the cultures, Spectrophotometry: 52.01 mg-per-liter

## Cc1ccc(S(=O)(=O)Oc2ccc(N=Nc3ccc(-c4ccc(N=Nc5c(O)ccc6cc(S(=O)(=O)O)cc(S(=O)(=O)O)c56)c(C)c4)cc3C)cc2)cc1 [compound 21]
[6]
  Dye remaining in the cultures, HPLC: 103.62 mg-per-liter
  Dye remaining in the cultures, Spectrophotometry: 102.38 mg-per-liter

## COc1cc(-c2ccc(N=Nc3c(S(=O)(=O)O)cc4cc(S(=O)(=O)O)cc(N)c4c3O)c(OC)c2)ccc1N=Nc1c(S(=O)(=O)O)cc2cc(S(=O)(=O)O)cc(N)c2c1O [compound 22]
[6]
  Dye remaining in the cultures, HPLC: 12.28 mg-per-liter
  Dye remaining in the cultures, Spectrophotometry: 7.64 mg-per-liter

## O=S(=O)(O)c1ccc(N=Nc2c(O)ccc3ccccc23)c2ccccc12 [compound 23]
[6]
  Dye remaining in the cultures, HPLC: 72.43 mg-per-liter
  Dye remaining in the cultures, Spectrophotometry: 89.27 mg-per-liter

## Nc1ccc2c(O)c(N=Nc3ccc(N=Nc4ccc(N=Nc5cc(S(=O)(=O)O)c6cccc(S(=O)(=O)O)c6c5)c5ccccc45)c4ccc(S(=O)(=O)O)cc34)c(S(=O)(=O)O)cc2c1 [compound 25]
[6]
  Dye remaining in the cultures, HPLC: 14.86 mg-per-liter
  Dye remaining in the cultures, Spectrophotometry: 9.66 mg-per-liter

## Nc1ccc2cc(S(=O)(=O)O)cc(O)c2c1N=Nc1ccc(NC(=O)Nc2ccc(N=Nc3c(N)ccc4cc(S(=O)(=O)O)cc(O)c34)c(S(=O)(=O)O)c2)cc1S(=O)(=O)O [compound 26]
[6]
  Dye remaining in the cultures, HPLC: 6.98 mg-per-liter
  Dye remaining in the cultures, Spectrophotometry: 4.33 mg-per-liter

## CCOc1ccc(N=Nc2ccc(C=Cc3ccc(N=Nc4ccc(OCC)cc4)cc3S(=O)(=O)O)c(S(=O)(=O)O)c2)cc1 [compound 27]
[6]
  Dye remaining in the cultures, HPLC: 29.42 mg-per-liter
  Dye remaining in the cultures, Spectrophotometry: 28.33 mg-per-liter

## COc1ccccc1NC(=O)C(N=Nc1ccc(-c2nc3ccc(C)c(S(=O)(=O)O)c3s2)cc1S(=O)(=O)O)=C(C)O [compound 29]
[6]
  Dye remaining in the cultures, HPLC: 109.39 mg-per-liter
  Dye remaining in the cultures, Spectrophotometry: 108.92 mg-per-liter

## Nc1ccc(N=Nc2ccc(S(=O)(=O)O)cc2)cc1 [compound 30]
[1]
  Oxidation rate of azo dyes, P. chrysosporium Ligninase: 1.58 μmoles per minute per ml
[2]
  Oxidation rate of azo dyes, Horseradish peroxidase: 0.40 μmoles per minute per ml
[3]
  Oxidation rate of azo dyes, P. chrysosporium Mn-peroxidase: 0.59 μmoles per minute per ml
[4]
  Oxidation rate of azo dyes, S. chromofuscus peroxidase: 0.00 μmoles per minute per ml
[5]; initial concn 150 ppm
  % Decolorization, P. chrysosporium: 85%
[5]; initial concn 300 ppm
  % Decolorization, P. chrysosporium: 80%
